What was measured:
Pseudomonas aeruginosa = assay: Kirby-Bauer type assay, zone of inhibition; assay type: cell-based; conditions: P. aeruginosa, 24 h incubation
Procedure: (§1) Antimicrobial activity of the modified IRGASAN® bacteriostat was compared to that of the unmodified material in a Kirby-Bauer type assay. Three solutions of IRGASAN® bacteriostat and three solutions of modified IRGASAN® bacteriostat (3, 30 and 3000 ppm) were prepared and soaked into Whatman filter paper disks ˜6 mm in diameter and allowed to dry. The disks were placed onto the surface of nutrient agar plates that had been inoculated with 1×10^6 cells of either E. coli or Pseudomonas aeruginosa. The ability of the compounds to inhibit bacterial growth was determined by measuring the diameter of the zone of inhibition surrounding the filter paper disks after 24 h of incubation. The results (TABLE 1) indicate that there is no difference in activity between the modified and unmodified IRGASAN® bacteriostat compound.

E. coli = assay: Kirby-Bauer type assay, zone of inhibition; assay type: cell-based; conditions: 24 h incubation
Procedure: as §1

[1] = Dioxin (2,8 DCDD) formation during GC-MS analysis; assay type: physicochemical; conditions: injection of a 1000 ppm solution at 270° C. (518° F.)
Procedure: Dioxin formation was compared between modified and unmodified IRGASAN® bacteriostat samples. It was determined that 2,8 DCDD was produced during analysis of unmodified IRGASAN® bacteriostat by gas-chromatography-mass spectroscopy (GC-MS), presumably during injection of the material at 270° C. (518° F.).
The structure of IRGASAN® bacteriostat was modified by derivatization with BSTFA. A 0.1 ml volume of BSTFA (Supelco inc.) was added to 1.0 ml of a 1000 ppm IRGASAN® solution. Dioxin levels were undetectable upon analysis of the modified IRGASAN® solution by GC-MS.

[2] = background statement; cited from earlier work
[3] = 3 ppm solution soaked into filter paper disk
[4] = 30 ppm solution soaked into filter paper disk
[5] = 3000 ppm solution soaked into filter paper disk

SMILES	zone of inhibition at 3 ppm (Pseudomonas aeruginosa; Pseudomonas aeruginosa, 3 ppm solution soaked into filter paper disk) [mm]	zone of inhibition at 30 ppm (Pseudomonas aeruginosa; Pseudomonas aeruginosa, 30 ppm solution soaked into filter paper disk) [mm]	zone of inhibition at 3000 ppm (Pseudomonas aeruginosa; Pseudomonas aeruginosa, 3000 ppm solution soaked into filter paper disk) [mm]	zone of inhibition at 3 ppm (E. coli; Escherichia coli, 3 ppm solution soaked into filter paper disk) [mm]	zone of inhibition at 30 ppm (E. coli; Escherichia coli, 30 ppm solution soaked into filter paper disk) [mm]	zone of inhibition at 3000 ppm (E. coli; Escherichia coli, 3000 ppm solution soaked into filter paper disk) [mm]	production of DCDD (dioxin level) [1]	Zone of Inhibition (Pseudomonas aeruginosa; [3]) [mm]	Zone of Inhibition (Pseudomonas aeruginosa; [4]) [mm]	Zone of Inhibition (Pseudomonas aeruginosa; [5]) [mm]	Zone of Inhibition (E. coli; [3]) [mm]	Zone of Inhibition (E. coli; [4]) [mm]	Zone of Inhibition (E. coli; [5]) [mm]	temperature above which the ether converts to chlorinated dioxin (DCDD) [2]
C[Si](C)(C)Oc1cc(Cl)ccc1Oc1ccc(Cl)cc1Cl [Modified, 2,4,4′-trichloro-2′-trimethylsilyloxy diphenyl ether]	0	0	0	1	4	12	undetectable							
Oc1cc(Cl)ccc1Oc1ccc(Cl)cc1Cl [Unmodified, 2,4,4′-dichloro-2′-hydroxydiphenyl ether]							approximately 46 ppm	0	0	0	1	4	12	above 200 °C

— patent US6552214B1, “Antimicrobial compound” (General Electric Company, priority 2000, dated 2003)
